From US8383139B2 (Bayer CropScience AG, priority 2008, dated 2013) come the findings set out here.

Data set [1] is described as follows: log P by HPLC on reversed-phase columns (C 18), EEC Directive 79/831 Annex V.A8. It is filed as physicochemical. Particulars: reversed-phase C18 HPLC column, pH 2.3, [a] HPLC, acid region pH 2.3, 0.1% aqueous phosphoric acid and acetonitrile; read-out: log p.
For the next data set, the system named is Alternaria solani. Put plainly: Alternaria test (tomato)/protective. Particulars: 72 h, 100 ppm active substance, protective, evaluation 3 days after inoculation, read-out: degree of effectiveness. It is filed as in vivo. On the procedure: (§1) • Solvents: 24.5 parts by weight of acetone • 24.5 parts by weight of dimethylacetamide • Emulsifier: 1 part by weight of alkylaryl polyglycol ether (polyoxyethylene (16) tristearylphenyl ether)
(§2) To prepare a suitable active substance composition, 1 part by weight of active substance is mixed with the given amounts of solvents and emulsifier and the concentrate is diluted to the desired concentration using water.
For the testing of protective effectiveness, young plants are sprayed with the active substance composition in the application rate given. After the spray coating has been dried on, the plants are inoculated with an aqueous suspension of spores of Alternaria solani. The plants are then placed in an incubation chamber at approximately 20° C. and 100% relative humidity.
Evaluation is carried out 3 days after the inoculation. In this connection, 0% means a degree of effectiveness corresponding to that of the control, while a degree of effectiveness of 100% means that no infestation is observed.

The test system of the next data set is Uromyces appendiculatus. Put plainly: Uromyces test (beans)/protective. Conditions: 240 h, 100 ppm active substance, protective, evaluation 10 days after inoculation, read-out: degree of effectiveness. It is filed as in vivo. On the procedure: as §1, §2
For the testing of protective effectiveness, young plants are sprayed with the active substance composition in the application rate given. After the spray coating has been dried on, the plants are inoculated with an aqueous suspension of the spores of the bean rust pathogen Uromyces appendiculatus and then remain in an incubation chamber at approximately 20° C. and 100% relative humidity for 1 day.
The plants are then placed in a greenhouse at approximately 21° C. and a relative humidity of approximately 90%.
Evaluation is carried out 10 days after the inoculation. In this connection, 0% means a degree of effectiveness corresponding to that of the control, while a degree of effectiveness of 100% means that no infestation is observed.

The next data set concerns Sphaerotheca fuliginea. Put plainly: Sphaerotheca test (cucumber)/protective. Conditions: Podosphaera fuliginea, 168 h, 500 ppm active substance, protective, evaluation 7 days after inoculation, read-out: degree of effectiveness. In kind it is in vivo. As for the experimental part:
• Solvents: 49 parts by weight of N,N-dimethylformamide • Emulsifier: 1 part by weight of alkylaryl polyglycol ether (polyoxyethylene (16) tristearylphenyl ether) To prepare a suitable active substance composition, 1 part by weight of active substance is mixed with the given amounts of solvents and emulsifier and the concentrate is diluted to the desired concentration using water. For the testing of protective effectiveness, young cucumber plants are sprayed with the active substance composition in the application rate given. One day after the treatment, the plants are inoculated with a suspension of spores of Sphaerotheca fuliginea. Subsequently, the plants are placed in a greenhouse at 70% relative humidity and at a temperature of 23° C. Evaluation is carried out 7 days after the inoculation. In this connection, 0% means a degree of effectiveness corresponding to that of the control, while a degree of effectiveness of 100% means that no infestation is observed.

For the next data set, the system named is Puccinia triticina. As to the kind of experiment: Puccinia triticina test (wheat)/protective. Conditions: 192 h, 500 ppm active substance, protective, evaluation 8 days after inoculation, read-out: degree of effectiveness. In kind it is in vivo. As for the experimental part: • Solvent: 50 parts by weight of N,N-dimethylacetamide • Emulsifier: 1 part by weight of alkylaryl polyglycol ether (polyoxyethylene (16) tristearylphenyl ether) To prepare a suitable active substance composition, 1 part by weight of active substance is mixed with the given amounts of solvent and emulsifier and the concentrate is diluted to the desired concentration using water. For the testing of protective effectiveness, young plants are sprayed with the active substance composition in the application rate given. After the spray coating has been dried on, the plants are sprayed with spores with a suspension of spores of Puccinia triticina. The plants remain in an incubation chamber at 20° C. and 100% relative humidity for 48 hours. The plants are placed in a greenhouse at a temperature of approximately 20° C. and a relative humidity of approximately 80%. Evaluation is carried out 8 days after the inoculation. In this connection, 0% means a degree of effectiveness corresponding to that of the control, while a degree of effectiveness of 100% means that no infestation is observed.

Another data set concerns Septoria tritici. Put plainly: Septoria tritici test (wheat)/protective. It is filed as in vivo. Conditions: Zymoseptoria tritici, 504 h, 500 ppm active substance, protective, evaluation 21 days after inoculation, read-out: degree of effectiveness. On the procedure:
• Solvent: 50 parts by weight of N,N-dimethylacetamide • Emulsifier: 1 part by weight of alkylaryl polyglycol ether (polyoxyethylene (16) tristearylphenyl ether) To prepare a suitable active substance composition, 1 part by weight of active substance is mixed with the given amounts of solvent and emulsifier and the concentrate is diluted to the desired concentration using water. For the testing of protective effectiveness, young plants are sprayed with the active substance composition at the application rate given. After the spray coating has dried on, the plants are sprayed with a suspension of spores of Septoria tritici. The plants remain in an incubation chamber at 20° C. and 100% relative humidity for 48 hours. The plants are afterwards placed under a transparent hood at 15° C. and 100% relative humidity for a further 60 hours. The plants are placed in a greenhouse at a temperature of approximately 15° C. and a relative humidity of 80%. Evaluation is carried out 21 days after the inoculation. In this connection, 0% means a degree of effectiveness corresponding to that of the control, while a degree of effectiveness of 100% means that no infestation is observed.

The structures appear in SMILES notation.

As for `CCC(c1ccccc1)c1nsc(Oc2cc(C)c(N=CN(C)CC)cc2C)n1` (stereo not drawn) [Example 6, N′-(2,5-dimethyl-4-{[3-(1-phenylpropyl)-1,2,4-thiadiazol-5-yl]oxy}phenyl)-N-ethyl-N-methylimidoformamide], the chromatographic logP in data set [1] came to 2.08. Also, the pest or weed control at 100 ppm in the data set on Alternaria solani and with Uromyces appendiculatus was at least 70% each time. Moreover, the pest or weed control at 500 ppm in the data set on Sphaerotheca fuliginea, in the data set with Puccinia triticina and in the data set with Septoria tritici was at least 70% in each case.
Take `CCC(c1ccccc1)c1nsc(Oc2cc(C)c(N=CN3CCCCC3)cc2C)n1` (stereo not drawn) [Example 7, 2,5-dimethyl-4-{[3-(1-phenylpropyl)-1,2,4-thiadiazol-5-yl]oxy}-N-(piperidin-1-ylmethylidene)aniline]: the chromatographic logP in data set [1] amounted to 2.21. Also, the pest or weed control at 100 ppm in the data set on Alternaria solani and with Uromyces appendiculatus was at least 70% throughout. The pest or weed control at 500 ppm in the data set with Sphaerotheca fuliginea, with Puccinia triticina and in the data set on Septoria tritici was at least 70% throughout.
With `Cc1cc(Oc2nc(C(C)c3ccccc3)ns2)c(C)cc1N=CN1CCCCC1` (stereo not drawn) [Example 8, 2,5-dimethyl-4-{[3-(1-phenylethyl)-1,2,4-thiadiazol-5-yl]oxy}-N-(piperidin-1-ylmethylidene)aniline], in data set [1], the chromatographic logP was 1.95. Also, the pest or weed control at 100 ppm in the data set with Alternaria solani and with Uromyces appendiculatus was at least 70% each time. The pest or weed control at 500 ppm in the data set on Sphaerotheca fuliginea, in the data set with Puccinia triticina and in the data set with Septoria tritici was at least 70% throughout.
Regarding `Cc1cc(Oc2nc(Cc3ccc(Cl)cc3)ns2)c(C)cc1N=CN(C)C(C)C` [Example 9, N′-(4-{[3-(4-chlorobenzyl)-1,2,4-thiadiazol-5-yl]oxy}-2,5-dimethylphenyl)-N-methyl-N-(propan-2-yl)imidoformamide], in data set [1], the chromatographic logP was 2.03. The pest or weed control at 100 ppm in the data set on Alternaria solani and in the data set on Uromyces appendiculatus was at least 70% in each case. Moreover, the pest or weed control at 500 ppm in the data set with Sphaerotheca fuliginea, in the data set on Puccinia triticina and in the data set with Septoria tritici was at least 70% in each case.
`CCN(C)C=Nc1cc(C)c(Oc2nc(Cc3cccc(C(F)(F)F)c3)ns2)cc1C` [Example 10, N′-[2,5-dimethyl-4-({3-[3-(trifluoromethyl)benzyl]-1,2,4-thiadiazol-5-yl}oxy)phenyl]-N-ethyl-N-methylimidoformamide]: the chromatographic logP in data set [1] worked out at 2.05. Besides, the pest or weed control at 100 ppm in the data set on Alternaria solani and in the data set on Uromyces appendiculatus was at least 70% each time. Further, the pest or weed control at 500 ppm in the data set on Sphaerotheca fuliginea, in the data set with Puccinia triticina and with Septoria tritici was at least 70% each time.
Regarding `Cc1cc(Oc2nc(Cc3cccc(C(F)(F)F)c3)ns2)c(C)cc1N=CN1CCCCC1` [Example 13, 2,5-dimethyl-N-(piperidin-1-ylmethylidene)-4-({3-[3-(trifluoromethyl)benzyl]-1,2,4-thiadiazol-5-yl}oxy)aniline], the chromatographic logP in data set [1] stood at 2.28. Moreover, the pest or weed control at 100 ppm in the data set with Alternaria solani and with Uromyces appendiculatus was at least 70% in each case. Moreover, the pest or weed control at 500 ppm in the data set with Sphaerotheca fuliginea, in the data set with Puccinia triticina and in the data set on Septoria tritici was at least 70% each time.
Take `CCN(C)C=Nc1cc(C)c(Oc2nc(Cc3c(Cl)cccc3Cl)ns2)cc1C` [Example 15, N′-(4-{[3-(2,6-dichlorobenzyl)-1,2,4-thiadiazol-5-yl]oxy}-2,5-dimethylphenyl)-N-ethyl-N-methylimidoformamide]: the chromatographic logP in data set [1] came to 2.05. Further, the pest or weed control at 100 ppm with Alternaria solani and in the data set on Uromyces appendiculatus was at least 70% throughout. For the same compound, the pest or weed control at 500 ppm with Sphaerotheca fuliginea, with Puccinia triticina and with Septoria tritici was at least 70% throughout.
As for `Cc1cc(Oc2nc(C(C)c3ccc(Cl)cc3)ns2)c(C)cc1N=CN(C)C(C)C` (stereo not drawn) [Example 19, N′-[4-({3-[1-(4-chlorophenyl)ethyl]-1,2,4-thiadiazol-5-yl}oxy)-2,5-dimethylphenyl]-N-methyl-N-(propan-2-yl)imidoformamide], the chromatographic logP in data set [1] was 2.46. Further, the pest or weed control at 100 ppm in the data set on Alternaria solani and in the data set with Uromyces appendiculatus was at least 70% in each case. Moreover, the pest or weed control at 500 ppm in the data set on Sphaerotheca fuliginea, in the data set with Puccinia triticina and in the data set on Septoria tritici was at least 70% each time.
Regarding `CCN(C)C=Nc1cc(C)c(Oc2nc(Cc3ccccc3)ns2)cc1C` [Example 23, N′-{4-[(3-benzyl-1,2,4-thiadiazol-5-yl)oxy]-2,5-dimethylphenyl}-N-ethyl-N-methylimidoformamide], in data set [1], the chromatographic logP is 1.71. Also, the pest or weed control at 100 ppm in the data set with Alternaria solani and in the data set with Uromyces appendiculatus was at least 70% each time. The pest or weed control at 500 ppm in the data set on Sphaerotheca fuliginea, in the data set with Puccinia triticina and with Septoria tritici was at least 70% throughout.
Consider `Cc1cc(Oc2nc(C(C)(C)c3ccc(Cl)cc3)ns2)c(C)cc1N=CN1CCCCC1` [Example 26, 4-({3-[2-(4-chlorophenyl)propan-2-yl]-1,2,4-thiadiazol-5-yl}oxy)-2,5-dimethyl-N-(piperidin-1-ylmethylidene)aniline], for which the chromatographic logP in data set [1] worked out at 2.76. The pest or weed control at 100 ppm with Alternaria solani and with Uromyces appendiculatus was at least 70% each time. Moreover, the pest or weed control at 500 ppm in the data set with Sphaerotheca fuliginea, with Puccinia triticina and in the data set with Septoria tritici was at least 70% throughout.
`CCN(C)C=Nc1cc(Cl)c(Oc2nc(C(C)(C)c3ccc(Cl)cc3)ns2)cc1C` [Example 28, N′-[5-chloro-4-({3-[2-(4-chlorophenyl)propan-2-yl]-1,2,4-thiadiazol-5-yl}oxy)-2-methylphenyl]-N-ethyl-N-methylimidoformamide]: the chromatographic logP in data set [1] was 2.73. Also, the pest or weed control at 100 ppm in the data set with Alternaria solani and with Uromyces appendiculatus was at least 70% in each case. Besides, the pest or weed control at 500 ppm in the data set on Sphaerotheca fuliginea, in the data set on Puccinia triticina and in the data set on Septoria tritici was at least 70% in each case.
With `Cc1cc(Oc2nc(Cc3ccccc3)ns2)c(C)cc1N=CN1CCCCC1` [Example 36, 4-[(3-benzyl-1,2,4-thiadiazol-5-yl)oxy]-2,5-dimethyl-N-(piperidin-1-ylmethylidene)aniline], in data set [1], the chromatographic logP came out at 1.91. Also, the pest or weed control at 100 ppm in the data set on Alternaria solani and in the data set on Uromyces appendiculatus was at least 70% in each case. For the same compound, the pest or weed control at 500 ppm in the data set on Sphaerotheca fuliginea, in the data set on Puccinia triticina and in the data set on Septoria tritici was at least 70% in each case.
